Molecules are shown by their SMILES.

For `O=C(NC[C@]1(O)CC[C@H](COc2ccccc2)CC1)c1ccc(O)cc1` [Example 8, 4-Hydroxy-N-{[trans-1-hydroxy-4-(phenoxymethyl)cyclohexyl]methyl}benzamide], the melting point came out at 189.5 °C.

For the compound `O=C(NC[C@]1(O)CC[C@H](COc2c(F)cccc2F)CC1)c1ccc(O)cc1` [Example 12, N-({trans-4-[(2,6-Difluorophenoxy)methyl]-1-hydroxycyclohexyl}methyl)-4-hydroxybenzamide], the melting point turned out to be 153.7 °C.

The compound `O=C(NC[C@]1(O)CC[C@H](COc2ccccc2Cl)CC1)c1ccc(O)cc1` [Example 14, N-({trans-4-[(2-Chlorophenoxy)methyl]-1-hydroxycyclohexyl}methyl)-4-hydroxybenzamide] registered a melting point of 159 °C.

In turn, `COc1cccc(OC[C@H]2CC[C@@](O)(CNC(=O)c3ccc(O)cc3)CC2)c1` [Example 20, 4-Hydroxy-N-({trans-1-hydroxy-4-[(3-methoxyphenoxy)methyl]cyclohexyl}methyl)benzamide] gave a melting point of 190.3 °C.

For the compound `O=C(NC[C@]1(O)CC[C@H](COCc2ccc(Cl)cc2)CC1)c1ccc(O)cc1` [Example 25, N-[(trans-4-{[(4-Chlorobenzyl)oxy]methyl}-1-hydroxycyclohexyl)methyl]-4-hydroxybenzamide], the melting point is 164.1 °C.

`O=C(NC[C@]1(O)CC[C@H](CCOc2ccccc2)CC1)c1ccc(O)cc1` [Example 26, 4-Hydroxy-N-{[trans-1-hydroxy-4-(2-phenoxyethyl)cyclohexyl]methyl}benzamide] showed a melting point of 168.7 °C.

As to `O=C(NC[C@]1(O)CC[C@H](CCOc2ccccc2F)CC1)c1ccc(O)cc1` [Example 27, N-({trans-4-[2-(2-Fluorophenoxy)ethyl]-1-hydroxycyclohexyl}methyl)-4-hydroxybenzamide], the melting point was 178.9 °C.

`O=C(NC[C@]1(O)CC[C@H](CCOc2cccc(F)c2)CC1)c1ccc(O)cc1` [Example 28, N-({trans-4-[2-(3-Fluorophenoxy)ethyl]-1-hydroxycyclohexyl}methyl)-4-hydroxybenzamide] returned a melting point of 134.5 °C.

`O=C(NC[C@]1(O)CC[C@H](CCOc2ccc(F)cc2)CC1)c1ccc(O)cc1` [Example 29, N-({trans-4-[2-(4-Fluorophenoxy)ethyl]-1-hydroxycyclohexyl}methyl)-4-hydroxybenzamide]: the melting point came out at 177.5 °C.

Compound `O=C(NC[C@]1(O)CC[C@@H](Oc2ccc(Cl)cc2)CC1)c1ccc(O)cc1` [Example 32, N-{[cis-4-(4-Chlorophenoxy)-1-hydroxycyclohexyl]methyl}-4-hydroxybenzamide] showed a melting point of 196.6 °C.

In turn, `O=C(NC[C@]1(O)CC[C@H](OCc2ccc(F)cc2)CC1)c1ccc(O)cc1` [Example 47, N-({trans-4-[(4-Fluorobenzyl)oxy]-1-hydroxycyclohexyl}methyl)-4-hydroxybenzamide] had a melting point of 122.1 °C.

As for `O=C(NC[C@]1(O)CC[C@H](OCc2cccc(F)c2)CC1)c1ccc(O)c(F)c1` [Example 49], the melting point amounted to 138.2 °C.

For the compound `O=C(NC[C@]1(O)CC[C@H](CCOc2ccccc2F)CC1)c1ccc(O)c(F)c1` [Example 51, 3-Fluoro-N-({trans-4-[2-(2-fluorophenoxy)ethyl]-1-hydroxycyclohexyl}methyl)-4-hydroxybenzamide], the melting point was found to be 184.7 °C.

In the case of `O=C(NC[C@H]1CC[C@@H](Oc2ccc(F)cc2)CC1)c1ccc(O)cc1` [Example 54, N-{[cis-4-(4-Fluorophenoxy)cyclohexyl]methyl}-4-hydroxybenzamide], the melting point was 170.5 °C.

Compound `O=C(NC[C@H]1CC[C@@H](Oc2ccc(F)cc2)CC1)c1ccc(O)c(F)c1` [Example 55, 3-Fluoro-N-{[cis-4-(4-fluorophenoxy)cyclohexyl]methyl}-4-hydroxybenzamide] gave a melting point of 149.5 °C.

Consider `O=C(NC[C@H]1CC[C@@H](OCCc2ccccc2)CC1)c1cn[nH]c1` [Example 72, N-{[cis-4-(2-Phenylethoxy)cyclohexyl]methyl}-1H-pyrazole-4-carboxamide], for which the melting point was found to be 145 °C.

The compound `O=C(NC[C@H]1CC[C@@H](CCOc2ccccc2)CC1)c1cn[nH]c1` [Example 77, N-{[cis-4-(2-Phenoxyethyl)cyclohexyl]methyl}-1H-pyrazole-4-carboxamide] came in with a melting point of 155.7 °C.

`O=C(NC[C@H]1CC[C@@H](COc2ccccc2)CC1)c1ccc(O)nc1` [Example 82, 6-Hydroxy-N-{[cis-4-(phenoxymethyl)cyclohexyl]methyl}nicotinamide] displayed a melting point of 189.8 °C.

As to `O=C(NC[C@H]1CC[C@@H](CCOc2ccccc2)CC1)c1ccnc(O)c1` [Example 83, 2-Hydroxy-N-{[cis-4-(2-phenoxyethyl)cyclohexyl]methyl}isonicotinamide], the melting point was determined as 199.9 °C.

In turn, `O=C(NC[C@H]1CC[C@@H](CCOc2ccccc2)CC1)c1ccc(O)nc1` [Example 84, 6-Hydroxy-N-{[cis-4-(2-phenoxyethyl)cyclohexyl]methyl}nicotinamide] came in with a melting point of 167.6 °C.

For `O=C(NC[C@H]1CC[C@@H](CCOc2ccccc2)CC1)c1ccn[nH]1` [Example 85, N-{[cis-4-(2-Phenoxyethyl)cyclohexyl]methyl}-1H-pyrazole-5-carboxamide], the melting point is 130.5 °C.

`O=C(NC[C@H]1CC[C@@H](CCOc2ccccc2)CC1)c1c[nH]cn1` [Example 86, N-{[cis-4-(2-Phenoxyethyl)cyclohexyl]methyl}-1H-imidazole-4-carboxamide] came in with a melting point of 169.6 °C.

Turning to `O=C(NC[C@H]1CC[C@@H](CCOc2ccccc2)CC1)c1ccc(=O)[nH]n1` [Example 93, 6-Oxo-N-{[cis-4-(2-phenoxyethyl)cyclohexyl]methyl}-1,6-dihydropyridazine-3-carboxamide], the melting point was found to be 177.5 °C.

With `O=C(NC[C@H]1CC[C@@H](CCOc2ccccc2)CC1)c1cc[nH]c1` [Example 96, N-{[cis-4-(2-Phenoxyethyl)cyclohexyl]methyl}-1H-pyrrole-3-carboxamide], the melting point amounted to 121 °C.

`O=C(NC[C@H]1CC[C@@H](COc2ccccc2F)CC1)c1cn[nH]c1` [Example 100, N-({cis-4-[(2-Fluorophenoxy)methyl]cyclohexyl}methyl)-1H-pyrazole-4-carboxamide] gave a melting point of 139.8 °C.

Turning to `O=C(NC[C@H]1CC[C@@H](CCOc2ccccc2)CC1)c1ccc2[nH]c(=O)sc2c1` [Example 101, 2-Oxo-N-{[cis-4-(2-phenoxyethyl)cyclohexyl]methyl}-2,3-dihydro-1,3-benzothiazole-6-carboxamid], the melting point was 159.9 °C.

The compound `Nc1n[nH]cc1C(=O)NC[C@H]1CC[C@@H](CCOc2ccccc2)CC1` [Example 102, 3-Amino-N-{[cis-4-(2-phenoxyethyl)cyclohexyl]methyl)-1H-pyrazole-4-carboxamide] showed a melting point of 129.3 °C.

`O=C(NC[C@H]1CC[C@@H](CCOc2ccccc2)CC1)c1ccc2[nH]ncc2c1` [Example 103, N-{[cis-4-(2-Phenoxyethyl)cyclohexyl]methyl}-1H-indazole-5-carboxamide] gave a melting point of 144.5 °C.

Broadly, the melting point is the temperature, or range, at which the solid turns liquid.

These data come from patent US20070167452A1, “Therapeutic amide derivatives” (PFIZER, INC., priority 2004, published 2007).
